These are literature values, as cited in patent US20100112053A1, “GASTRIC RETENTION-TYPE SUSTAINED-RELEASE LEVODOPA PREPARATION” (Kissei Pharmaceutical Co., Ltd., priority 2007, published 2010).

Like-named read-outs stand apart in the source and are kept apart here.

Setting [1] is: under a weakly acidic to basic condition.

Regarding `C[C@@](Cc1ccc(O)c(O)c1)(NN)C(=O)O` [carbidopa], the Solubility entry is, setting by setting: under setting [1], “low”; (under an acidic condition) “high”.
Regarding `N[C@@H](Cc1ccc(O)c(O)c1)C(=O)O` [levodopa], the Solubility entry runs as follows: under setting [1], “low”; (under an acidic condition) “high”.
